For data set [1], the target named is T1, recombinant human secretory phospholipase A2 (Homo sapiens, UniProt P14555).
T1 sequence (P14555 21-144): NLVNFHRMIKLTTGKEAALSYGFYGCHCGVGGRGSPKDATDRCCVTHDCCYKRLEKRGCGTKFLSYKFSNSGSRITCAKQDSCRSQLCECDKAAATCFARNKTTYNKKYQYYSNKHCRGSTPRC
Put plainly: Inhibition test of human secretory phospholipase A2 (chromogenic assay, 96 well microtiterplate). The class given is biochemical. As to conditions: sPLA2 50 ng/well, 40° C., 30 minutes, OD 405 nm, substrate 1,2-bis(heptanoylthio)-1,2-dideoxy-sn-glycero-3-phospholylcholine. An excerpt: Inhibition Test of Human Secretory Phospholipase A2 Analytical Experiment
In order to identify and evaluate an inhibitor of recombinant human secretory phospholipase A2, the following chromogenic assay is utilized. The assay herein has been applied for high volume screening wherein 96 well microtiterplate is used. A general explanation for such assay is described in “Analysis of Human Synovial Fluid Phospholipase A2 on Short Chain Phosphatidylcholine-Mixed Micelles: Development of a Spectrophotometric Assay Suitable for a Micortiterplate Reader” (Analytical Biochemistry, 204, pp 190-197, 1992 by Laure. J. Reynolds. Lori L. Hughes and Edward A. Dennis: the disclosure of which is incorporated herein for reference.
1 mg of sPLA2 is dissolved in 1 ml of an enzyme buffer. Thereafter, the solution is maintained at 4° C.
In the assay, 5 μl of the solution is diluted with 1995 μl of the reaction buffer to be used.
198 mg of 5,5′-dithiobis-2-[…] (manufactured by Wako Pure Chemicals) is dissolved in 100 ml of H2O
pH 7.5 (adjusted with NaOH)
100 mg of racemic 1,2-bis(heptanoylthio)-1,2-dideoxy-sn-glycero-3-phospholylcholine is dissolved in 1 ml of chloroform.
624.9 mg of Triton-X 100 is dissolved in the reaction buffer.
Enzyme Reaction: for 1 Plate of Microtiterplate
1) 0.106 ml of the substrate solution is put in a centrifugal tube, and nitrogen gas is jetted to remove the solvent. 0.54 ml of Triton-X 100 is added thereto, the mixture is stirred, thereafter it is sonified in a bath type sonification to dissolve. To the resulting product are added 17.8 ml of the reaction buffer and 0.46 ml of DTNB, and 0.18 ml each of the admixture is poured to wells of the 96 well microtiterplate.
2) 10 μl of a test compound (or solvent blank) are added in accordance with alignment of plates which has been previously set.
3) Incubation is effected at 40° C. for 15 minutes.
4) 20 μl of an enzyme solution (sPLA2) which has been previously diluted (50 ng/well) are added to start reaction (40° C., 30 minutes).
5) Changes in absorbancy for 30 minutes are measured by a plate reader, and inhibition activity was calculated (OD: 405 nm).
6) IC50 was determined by plotting log concentration with respect to inhibition values within 10% to 90% inhibiting range.

By IC50 is commonly meant the point on the concentration scale where inhibition reaches its midpoint. As to `CCc1c(C(=O)C(N)=O)c2c(OCC(=O)OC)nc(C)nn2c1Cc1ccccc1-c1ccccc1` [Compound I-7], the IC50 in data set [1] was found to be 607 nM.

Usually melting point stands for the temperature of the solid-liquid transition. The compound `CCc1c(C(=O)C(N)=O)c2c(OCC(=O)OC)nc(C)nn2c1Cc1ccccc1` [Compound I-3] returned a melting point of 170 to 171 °C. Also, the IC50 in data set [1] stood at 317 nM. For `Cc1nc(OCC(=O)O)c2c(C(=O)C(N)=O)c(C)c(Cc3ccccc3)n2n1` [Compound I-2], in that order: 195 to 197 °C and 13 nM.

As to `COC(=O)COc1nc(C)nn2c(Cc3ccccc3)c(C)c(C(=O)C(N)=O)c12` [Compound I-1], in data set [1], the IC50 turned out to be 203 nM.

`CCc1c(C(=O)C(N)=O)c2c(OCC(=O)O)nc(C)nn2c1Cc1ccccc1-c1cccs1` [Compound I-6] yielded a melting point of 184 to 186 °C. Also, in data set [1], the IC50 stood at 11 nM. For `CCc1c(C(=O)C(N)=O)c2c(OCC(=O)O)nc(C)nn2c1Cc1ccccc1` [Compound I-4], in that order: 207 to 209 °C and 11 nM.

`CCc1c(C(=O)C(N)=O)c2c(OCC(=O)O)nc(C)nn2c1Cc1ccccc1-c1ccccc1` [Compound I-8] returned a melting point of 174 to 176 °C. The IC50 in data set [1] worked out at 8 nM.

The values are drawn from US6787545B1, “Pyrrolotriazine derivatives having spla2-inhibitory activities” (Shiongi & Co., Ltd., priority 1999, dated 2004).
